SMILES strings stand for the structures.

This assay concerns the target T1, Putative FAD-containing monooxygenase MymA (Mycobacterium tuberculosis (strain ATCC 25618 / H37Rv), UniProt P9WNF7).
T1 sequence (P9WNF7 whole entry): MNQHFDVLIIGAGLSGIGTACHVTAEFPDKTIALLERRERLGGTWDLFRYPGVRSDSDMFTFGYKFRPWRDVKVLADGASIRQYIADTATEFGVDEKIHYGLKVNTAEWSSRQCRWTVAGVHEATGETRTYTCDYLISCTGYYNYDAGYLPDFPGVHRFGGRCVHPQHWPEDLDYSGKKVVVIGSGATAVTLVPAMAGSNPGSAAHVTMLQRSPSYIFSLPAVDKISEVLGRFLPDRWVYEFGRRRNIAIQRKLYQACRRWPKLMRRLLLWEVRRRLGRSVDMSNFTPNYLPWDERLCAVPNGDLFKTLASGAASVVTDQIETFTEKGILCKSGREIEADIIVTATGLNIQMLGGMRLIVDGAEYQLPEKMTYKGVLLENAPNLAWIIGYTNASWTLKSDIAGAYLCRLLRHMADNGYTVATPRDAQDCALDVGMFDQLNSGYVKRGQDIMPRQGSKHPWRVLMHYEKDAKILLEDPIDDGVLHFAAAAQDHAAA
The assay is described as follows: MymA Inhibition Assay. How it is done: Inhibition of MymA activity by INH was checked using different concentrations (0-12 um) of INH, 100 um of trimeth-ylamine and 5 mg of MymA along with the other components in the enzyme assay as described above.

What is called IC50 is the concentration that inhibits the measured activity by half. High values mean weaker potency in that assay, low ones greater potency in that assay. In the case of `NNC(=O)c1ccncc1` [4-pyridinecarbohydrazide(Isoniazid)], the half-maximal inhibitory concentration (IC50) came to 4.9 µM.

The values above are taken from BindingDB's records for doi:10.1111/cbdd.12840 (Miranda House, 2017).
